Test results as given in patent US7465448B2, “Chemokine receptor antagonists as therapeutic agents” (Medical College of Georgia Research Institute, Inc., priority 2002, dated 2008).
Entries after “also recorded” stand apart in the source; their conditions may differ.

Assays:
[1] = biological target: T1, IDO (Mus musculus, UniProt P28776); assay: MLR with sorted mouse tumor-draining lymph node cell fractions and BM3 T cell responders, with or without 1MT; type: cell-based; conditions: wild-type host, B78.GM tumor-draining LN
T1 construct: from tissue; host or cells: tumor-draining inguinal lymph node cells (sorted fractions) of C57BL/6 mice bearing B78.GM tumors
T1 sequence (P28776 whole entry): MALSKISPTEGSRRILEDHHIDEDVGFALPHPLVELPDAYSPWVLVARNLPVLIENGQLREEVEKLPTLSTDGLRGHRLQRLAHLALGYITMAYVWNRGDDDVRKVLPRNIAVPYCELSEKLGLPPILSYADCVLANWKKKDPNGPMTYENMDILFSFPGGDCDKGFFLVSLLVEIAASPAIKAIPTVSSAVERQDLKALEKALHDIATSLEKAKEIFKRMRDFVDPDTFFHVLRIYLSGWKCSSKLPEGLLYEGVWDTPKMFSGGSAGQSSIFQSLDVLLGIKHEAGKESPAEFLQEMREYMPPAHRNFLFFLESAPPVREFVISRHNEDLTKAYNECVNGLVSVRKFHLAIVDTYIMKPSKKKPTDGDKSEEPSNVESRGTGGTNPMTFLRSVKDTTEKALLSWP
From the text: (§1) Lymph node (LN) cells were harvested from inguinal LNs draining established B78.GM tumors. Control cells were harvested from the contralateral inguinal nodes in the same mouse. LN cells were irradiated and used as stimulators in allo-MLRs, with the responder cells being TCR-transgenic CD8^+ T cells from BM3 mice, as BM3 T cells recognize H-2K^b as an alloantigen (Tarazona, R., et al., Int. Immunol., 8:351-358, (1996)), and thus are reactive with all MHC class I positive cells from C57BL/6 tumor-bearing hosts. These cells are known by those of skill in the art to be a recognized assay system for IDO-mediated suppression of the T cell response (Munn, D. H., et al., Science, 297:1867-1870, (2002); Lee et al., Immunol., 107:1-9, (2002)). […] To determine the etiology of T cell suppression by APCs, tumor draining lymph node cells were harvested from B78.GM tumors and sorted into a B220^+ CD11c^+ plasmacytoid dendritic cell (pDC) fraction and a CD25^+CD4^+ regulatory T-cell (Treg) fraction. A third “all other” fraction was also collected. Each fraction was used as stimulators in an MLR with BM3 responders. […] Pooled draining LN cells (4 nodes) were stained and fractionated by 4-color cell sorting for the two populations shown in the top schematic. All other cells were collected in a third fraction. Each fraction was then used as stimulators in MLRs (FIG. 13), using 50,000 BM3 T cells as responders. The number of stimulators used in each MLR was adjusted to be the same as would have been present in 50,000 cells of the original LN preparation, based on the measured percentage of each sorted fraction. Thus, in the experiment shown, 500 cells of the sorted B220^+ CD11c^+ fraction were added per well, and 1500 cells of the CD25^+ CD4^+ fraction, while 48,000 cells of the “all other” fraction were used.

[2] = test system: IDO; assay: as above; type: cell-based
From the text: as §1

[3] = biological target: T2, CCR6 receptor (Homo sapiens, UniProt P51684); assay: Mip-3α gradient migration of mixed DCs with or without blocking anti-CCR6 antibody (Example 9); type: cell-based
T2 construct: a mixture of both CD123-positive (CCR6-positive) and CD123-negative (CCR6-negative) cells; endogenous in cells; host or cells: human monocyte-derived dendritic cells (mixed adherent and non-adherent fractions)
T2 sequence (P51684 1-374): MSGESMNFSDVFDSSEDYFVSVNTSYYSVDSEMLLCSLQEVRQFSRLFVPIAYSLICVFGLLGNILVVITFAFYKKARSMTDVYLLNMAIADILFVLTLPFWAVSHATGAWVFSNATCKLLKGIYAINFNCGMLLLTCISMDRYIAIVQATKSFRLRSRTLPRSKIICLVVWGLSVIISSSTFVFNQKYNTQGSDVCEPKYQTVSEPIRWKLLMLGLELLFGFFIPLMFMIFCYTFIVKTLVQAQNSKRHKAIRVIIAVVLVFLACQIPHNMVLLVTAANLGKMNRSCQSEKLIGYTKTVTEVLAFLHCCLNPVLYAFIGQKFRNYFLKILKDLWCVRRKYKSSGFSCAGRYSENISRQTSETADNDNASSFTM
From the text: Monocyte-derived human dendritic cells (adherent and non-adherent fractions) were harvested and pooled, as described in Example 8, yielding a preparation comprising a mixture of both CD123-positive (CCR6-positive) and CD123-negative (CCR6-negative) cells. In Example 8, it was shown that a gradient of mip-3α caused selective migration of the CD123+ (CCR6+) population.
The mixed population of DCs was allowed to migrate across a porous membrane in response to a gradient of mip-3alpha, as described in Example 8. Different treatment groups received a commercial anti-CCR6 antibody (10 ug/ml), an isotype-matched control antibody at the same concentration, or no antibody. After 18 hrs, migrating cells (recovered in the lower chamber of the chemotaxis assay apparatus) were harvested, counted, and analyzed by flow cytometry for CD123 expression. CD123 was used as a marker to identify the IDO-expressing population, rather than CCR6, because the anti-CCR6 blocking antibody could artifactually interfere with immunofluorescent staining for CCR6. Since both markers are co-expressed on the IDO+ cells with a one-to-one correspondence, either marker gives equivalent information.

[4] = test system: CCR6^+/IDO^+ APCs; assay: Mip-3α-induced chemotaxis of dendritic cells, upper/lower chamber (Example 8); type: cell-based, human; conditions: 0.5×10^6 DCs/well, after 4 hours
Method: In this experiment, mip-3α-induced chemotaxis of CCR6^+/IDO^+ APCs was measured. Dendritic cells matured with a cytokine cocktail as described herein were used for a chemotaxis assay with mip-3α as the chemoattractant. Thus, monocytes were cultured in serum free medium (X-Vivo15) for five days in the presence of GMCSF (50 ng/mL) and IL-4 (50 ng/mL). After five days, cells were treated with a cytokine cocktail consisting of IL-1β (1870 U/mL), IL-6 (1000 U/mL), TNFα (1100 U/mL) and prostaglandin E2 (PGE2; 1.0 μg/mL), for two days. The cells were harvested and used for the chemotaxis assay. Control starting DCs were immunostained for CD123 and CCR6 (“Pre-Chemotaxis DCs”).
Mip-3α (0.5 μg/mL) was added to the different chambers and a defined number of DCs (0.5×10^6/well) were put on the upper chamber. After 4 hours, cells were counted in lower chamber of each group (Table 2). FACS immunostain was performed on all groups for CCR6 and CD123 (FIG. 7). […] Migration required a gradient of mip-3α from the upper chamber to the lower chamber, consistent with ligand induced chemotaxis.

[5] = biological target: T3, CXCR4 (Homo sapiens, UniProt P61073); assay: Yeast (S. cerevisiae) pheromone-pathway signaling assay with expressed CXCR4; type: cell-based; conditions: yeast strains expressing CXCR4-WT; not in control cells lacking the receptor
T3 construct: expressed in transfected cells; host or cells: Saccharomyces cerevisiae, CXCR4 subcloned in the Cp4258 vector, coupled through a mammalian/yeast hybrid G subunit
T3 sequence (P61073 whole entry, species assumed): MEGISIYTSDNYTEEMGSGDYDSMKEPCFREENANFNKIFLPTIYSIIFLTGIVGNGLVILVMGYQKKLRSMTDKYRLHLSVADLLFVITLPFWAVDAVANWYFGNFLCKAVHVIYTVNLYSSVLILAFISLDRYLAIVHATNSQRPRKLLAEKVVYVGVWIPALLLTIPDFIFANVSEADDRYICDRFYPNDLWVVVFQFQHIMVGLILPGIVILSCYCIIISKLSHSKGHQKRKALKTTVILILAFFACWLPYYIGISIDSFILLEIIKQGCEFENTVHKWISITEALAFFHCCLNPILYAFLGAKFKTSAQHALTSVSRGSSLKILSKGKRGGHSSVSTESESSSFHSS
From the text: For example, CCR6 can be functionally expressed in S. cerevisiae for the purpose of screening putative antagonists and for generating constitutively active mutants (CAMs). Similar studies have been performed by the inventors using related […] receptors CXCR4 and CCR5. Thus, chemokine receptors CXCR4 and CCR5 were expressed in a yeast strain in which these guanine nucleotide protein receptors (GPRs) were coupled to the mating pheromone response pathway by a mammalian/yeast hybrid G subunit. Consequently, stimulation of CXCR4 and CCR5 by the cognate ligands (SDF-1 and RANTES, respectively) activated signal transduction that results in histidine prototrophy or, in strains also carrying a pheromone-responsive FUS1-lacZ reporter gene, beta-galactosidase expression. In these experiments, SDF-1 stimulated histidine-independent growth and reporter gene expression in yeast strains expressing CXCR4-WT, but not in control cells lacking the receptor. […] All available CXCR4 antagonists blocked growth in histidine deficient medium resulting from CXCR4 activation and the induction of reporter gene expression stimulated by SDF-1.

Compound: Cn1cc(CC(N)C(=O)O)c2ccccc21 (centres unmarked) [1-MT, 1-methyl-(D,L)-tryptophan]
- IDO-mediated suppression in mixing experiments (pDCs plus "all other" fraction) [1]: can be fully reversed; also recorded: again fully reversed
- Suppression by B220+ CD11c+ (pDC) fraction [1]: fully reversed
- Effect on MLR with LN fractions from IDO-knockout host ([2]; IDO-KO host, any group): no enhancing effect
- Suppression mediated by CD25+ CD4+ Tregs ([2]; wild-type host, B78.GM tumor-draining LN): not affected

Compound: Mip-3α: chemokine, ligand for the CCR6 chemokine receptor; chemotactic factor for immature dendritic cells
- Increase of migration of CD123+ cells ([3]; gradient of mip-3α, 18 hrs): > 10 fold
- Purity of CD123+ cells in migrated population ([3]; gradient of mip-3α, starting population 68% CD123+): 96%
- Mip-3α induced migration without gradient ([3]; mip-3α present on both sides of the membrane): substantially reduced
- Number of Cells in Lower Chamber ([4]; Mip-3α (0.5 μg/mL) in lower chamber only (gradient)): 2.96
- Number of Cells in Lower Chamber ([4]; Mip-3α (0.5 μg/mL) in upper and lower chamber): 0.98
- Number of Cells in Lower Chamber ([4]; Mip-3α (0.5 μg/mL) in upper chamber only): 0.73

Compound: SDF-1: cognate ligand of CXCR4
- Histidine-independent growth and reporter gene expression [5]: stimulated
